Source: PMC3180999 (Journal of medicinal chemistry, 2010)

Experiments:
AR = conditions: cited from earlier work
[1] = system: LNCaP (hormone sensitive) cells; test: PSA expression readout in normal LNCaP; format: cell-based
[2] = pharmacokinetics: serum concentration, steady state concentration
PSA secretion = test: relative PSA level / PSA secretion assay, cell line not named; format: cell-based; conditions: vs bicalutamide and 27 as standards, Scheme 9
LAPC4/AR cells = test: LAPC4/AR xenograft in castrate SCID mice; format: in vivo
LNCaP/AR cells [3] = test: PSA expression readout in LNCaP/AR; format: cell-based; conditions: Schemes 18 and 19
LNCaP/AR cells [4] = test: LNCaP/AR xenograft in castrate SCID mice; format: in vivo
[5] = serum concentration after IV injection, Figure 3
[6] = oral, 0.1, 1 and 10 mg/kg once a day, Figure 7

C[C@]1(O)CC[C@H]2[C@@H]3CCC4=CC(=O)CCC4=C3C=C[C@@]21C [R1881]
affinity for the AR (AR): slightly higher than that of the natural ligand dihydrotestosterone

CC1(C)C(=O)N(c2ccc(C#N)c(C(F)(F)F)c2)C(=S)N1CCCCO [RU59063]
affinity for the AR (AR): nearly equal to that of the well known steroidal agonist R1881

CC1(C)C(=O)N(c2ccc(C#N)c(C(F)(F)F)c2)C(=S)N1c1ccc(N=[N+]=[N-])cc1 [compound 25, 4-[3-(4-Azidophenyl)-4,4-dimethyl-5-oxo-2-thioxoimidazolidin-1-yl]-2-trifluoromethylbenzonitrile]
relative PSA level vs vehicle (DMSO) ([1]; bicalutamide as standard, Scheme 6): the best of this group

Cc1ccc(N2C(=S)N(c3ccc(C#N)c(C(F)(F)F)c3)C(=O)C23CCC3)cc1 [compound 38, 4-(8-Oxo-6-thioxo-5-(4-methylphenyl)-5,7-diazaspiro[3.4]oct-7-yl)-2-trifluoromethylbenzonitrile]
clearance [2, 5]: very rapid clearance | half-life [2, 5]: short half-life | relative PSA expression levels (PSA secretion): comparable to the dimethyl analogue 27 | fold change in tumor volume of xenografts (LAPC4/AR cells; 10 mg/kg, pilot experiment, Figure 1): slightly superior | dose response in change in tumor volume of xenografts (LAPC4/AR cells; castration-resistant xenograft assay, model not named at the place, Figure 2): good dose response

CNC(=O)c1ccc(N2C(=S)N(c3ccc(C#N)c(C(F)(F)F)c3)C(=O)C23CCC3)cc1F [compound 91, N-Methyl-4-[7-(4-cyano-3-trifluoromethylphenyl)-8-oxo-6-thioxo-5,7-diazaspiro-[3.4]oct-5-yl]-2-fluorobenzamide]
activity in the hormone refractory LNCaP/AR assay (LNCaP/AR cells [3]): excellent activity | pharmacokinetic (PK) profile ([2]; mouse, in vivo): superb pharmacokinetic (PK) profile | activity on xenografts over an extended period (LNCaP/AR cells [4]; 10 mg/kg/day, 31 days, Figure 8): retains activity | effect on LNCaP/AR (HR) tumor size (LNCaP/AR cells [4]; 10 and 50 mg/kg once a day, vs bicalutamide at the same dose, Figure 6): very active | dose required in dose response of tumor volume change (LNCaP/AR cells [4]; [6]): at least 1 mg/kg/day | optimal dose in dose response of tumor volume change (LNCaP/AR cells [4]; [6]): 10 mg/kg/day | effect on hormone sensitive LNCaP cells (PSA) ([1]; 10% FBS, harvest on day 6 and day 10, Scheme 20): good activity
